# Measured values reported in ChEMBL document CHEMBL3217481, “2-Amino-5-arylbenzoxazole derivatives as potent inhibitors of fatty acid amide hydrolase (FAAH)” (Medchemcomm, 2012).
# Assays:
# [1] = target: T1, Fatty-acid amide hydrolase 1 (Homo sapiens, UniProt O00519); assay: Inhibition of human FAAH expressed in HEK293 cells using arachadonyl 7-amino 4-methyl coumarin amide as substrate by fluorimetric assay; type: cell-based
# T1 sequence (O00519 whole entry): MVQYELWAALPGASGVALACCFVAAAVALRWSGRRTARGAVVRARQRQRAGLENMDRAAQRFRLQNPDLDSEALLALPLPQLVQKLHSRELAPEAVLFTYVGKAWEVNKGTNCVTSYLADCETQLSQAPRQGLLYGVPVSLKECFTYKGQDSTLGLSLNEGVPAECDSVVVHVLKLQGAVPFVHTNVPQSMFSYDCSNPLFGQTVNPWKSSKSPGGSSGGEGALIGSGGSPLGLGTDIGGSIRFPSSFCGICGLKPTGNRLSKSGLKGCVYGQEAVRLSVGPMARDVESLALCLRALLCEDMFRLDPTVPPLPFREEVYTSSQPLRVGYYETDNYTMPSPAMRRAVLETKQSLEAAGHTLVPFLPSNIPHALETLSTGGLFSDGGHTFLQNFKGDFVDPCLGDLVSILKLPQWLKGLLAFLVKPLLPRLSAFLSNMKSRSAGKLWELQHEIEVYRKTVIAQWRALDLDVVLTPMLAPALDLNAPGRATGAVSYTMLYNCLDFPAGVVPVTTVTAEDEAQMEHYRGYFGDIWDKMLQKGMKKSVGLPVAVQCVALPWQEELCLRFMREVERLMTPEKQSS
# [2] = target: T1, Fatty-acid amide hydrolase 1; assay: Reversible inhibition of full length human FAAH assessed as inhibition of 3[H]-anandamide hydrolysis preincubated for 3 hrs measured after 15 mins post substrate addition by cell-based assay
# [3] = target: T2, Fatty-acid amide hydrolase 1 (Rattus norvegicus, UniProt P97612); assay: Inhibition of rat FAAH expressed in HEK293 cells using arachadonyl 7-amino 4-methyl coumarin amide as substrate by fluorimetric assay; type: cell-based
# T2 sequence (P97612 whole entry): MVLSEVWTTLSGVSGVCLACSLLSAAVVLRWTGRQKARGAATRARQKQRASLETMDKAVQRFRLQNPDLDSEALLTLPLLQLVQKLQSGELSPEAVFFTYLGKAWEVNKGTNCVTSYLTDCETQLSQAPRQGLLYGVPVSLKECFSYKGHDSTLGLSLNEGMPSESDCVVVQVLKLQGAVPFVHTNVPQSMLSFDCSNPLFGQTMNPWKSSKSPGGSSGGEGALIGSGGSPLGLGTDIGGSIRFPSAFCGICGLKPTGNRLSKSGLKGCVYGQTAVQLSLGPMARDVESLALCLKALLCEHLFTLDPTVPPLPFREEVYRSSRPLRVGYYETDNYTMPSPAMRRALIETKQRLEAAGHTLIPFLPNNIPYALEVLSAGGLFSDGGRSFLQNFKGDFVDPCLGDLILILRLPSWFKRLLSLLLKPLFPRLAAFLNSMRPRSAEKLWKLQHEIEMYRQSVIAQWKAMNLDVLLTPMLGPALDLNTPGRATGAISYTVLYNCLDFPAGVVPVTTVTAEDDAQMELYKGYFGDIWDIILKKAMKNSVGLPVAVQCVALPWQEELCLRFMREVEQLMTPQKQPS
# [4] = Inhibition of guinea pig brain FAAH; parameters: species or system Cavia porcellus
# [5] = Inhibition of rabbit brain FAAH; parameters: species or system Oryctolagus cuniculus
compound,measurement,setting,value
Cn1ncc2c(-c3ccc4oc(NC5CCCCC5)nc4c3)cccc21,IC50,[1],52 nM
Cn1ccc2cc(-c3ccc4oc(N5CCN(c6ccccc6)CC5)nc4c3)ccc21,IC50,[1],63 nM
Cn1ccc2cc(-c3ccc4oc(N5CCCC5)nc4c3)ccc21,IC50,[1],674 nM
Cn1ccc2cc(-c3ccc4oc(N5CCOCC5)nc4c3)ccc21,IC50,[1],784 nM
CCCCCCCC/C=C\CCCCCCCC(=O)C(F)(F)F,IC50,[2],187 nM
Cn1ccc2cc(-c3ccc4oc(N5CCc6ccccc6C5)nc4c3)ccc21,IC50,[1],55 nM
NC(=O)Cn1ccc2cc(-c3ccc4oc(NC5CCCCC5)nc4c3)ccc21,IC50,[1],214 nM
C[C@@H]1CN(c2nc3cc(-c4ccc5c(ccn5C)c4)ccc3o2)C[C@H](C)O1,IC50,[1],168 nM
Cn1ccc2cc(-c3ccc4oc(Nc5ccccn5)nc4c3)ccc21,IC50,[1],186 nM
Cn1ccc2cc(-c3ccc4oc(Nc5ccncc5)nc4c3)ccc21,IC50,[1],> 1000 nM
c1cnc2ccc(-c3ccc4oc(NC5CCCCC5)nc4c3)cc2c1,IC50,[1],> 1000 nM
COCc1ccc(-c2ccc3oc(N4Cc5ccccc5C4)nc3c2)cc1OC,IC50,[1],13 nM
Cn1ncc2cc(-c3ccc4oc(N5Cc6ccccc6C5)nc4c3)ccc21,IC50,[1],1.2 nM
COc1cc(-c2ccc3oc(N4Cc5ccccc5C4)nc3c2)ccn1,IC50,[1],10 nM
Cn1ccc2cc(-c3ccc4oc(NC5CCCCC5)nc4c3)ccc21,IC50,[1],911 nM
CCn1ccc2cc(-c3ccc4oc(Nc5ccccc5)nc4c3)ccc21,IC50,[1],18 nM
same,IC50,[3],586 nM
same,IC50,[2],92 nM
same,IC50,[4],424 nM
same,IC50,[5],98 nM
Cn1ccc2cc(-c3ccc4oc(Nc5cccnc5)nc4c3)ccc21,IC50,[1],226 nM
Cn1ncc2c(-c3ccc4oc(N5Cc6ccccc6C5)nc4c3)cccc21,IC50,[1],3.2 nM
CCn1ccc2cc(-c3ccc4oc(NC5CCCCC5)nc4c3)ccc21,IC50,[1],207 nM
Cn1ccc2cc(-c3ccc4oc(Cc5ccccc5)nc4c3)ccc21,IC50,[1],488 nM
Cn1ccc2cc(-c3ccc4oc(N5Cc6cccnc6C5)nc4c3)ccc21,IC50,[1],211 nM
CNc1nc2cc(-c3ccc4c(ccn4C)c3)ccc2o1,IC50,[1],> 1000 nM
Cn1ccc2cc(-c3ccc4oc(N5Cc6ccncc6C5)nc4c3)ccc21,IC50,[1],121 nM
COc1ccc(-c2ccc3oc(NC4CCCCC4)nc3c2)cc1C,IC50,[1],228 nM
c1ccc(-c2ccc3oc(NC4CCCCC4)nc3c2)cc1,IC50,[1],> 1000 nM
c1cc2cc(-c3ccc4oc(NC5CCCCC5)nc4c3)cnc2[nH]1,IC50,[1],> 1000 nM
c1cc2c(ccn2C2COC2)cc1-c1ccc2oc(NC3CCCCC3)nc2c1,IC50,[1],579 nM
CN(c1ccccc1)c1nc2cc(-c3ccc4c(ccn4C)c3)ccc2o1,IC50,[1],68 nM
N#Cc1cc(-c2ccc3oc(NC4CCCCC4)nc3c2)ccc1O,IC50,[1],54 nM
Cn1ccc2cc(-c3ccc4oc(N5CCNCC5)nc4c3)ccc21,IC50,[1],> 1000 nM
NC(=O)c1cccc(-c2ccc3oc(NC4CCCCC4)nc3c2)c1,IC50,[1],> 1000 nM
Cn1ncc2cc(-c3ccc4oc(NC5CCCCC5)nc4c3)ccc21,IC50,[1],61 nM
NC(=O)c1cccc(-c2cccc(OC(=O)NC3CCCCC3)c2)c1 [URB-597],IC50,[4],26 nM
same,IC50,[5],0.8 nM
Cn1ccc2cc(-c3ccc4oc(Nc5ccccc5)nc4c3)ccc21,IC50,[1],48 nM
COc1cccc(-c2ccc3oc(N4Cc5ccccc5C4)nc3c2)c1,IC50,[1],28 nM
Cn1ccc2cc(-c3ccc4oc(Nc5ccc(F)cc5)nc4c3)ccc21,IC50,[1],99 nM
Cn1ccc2cc(-c3cccc4nc(N5Cc6ccccc6C5)oc34)ccc21,IC50,[1],> 1000 nM
Cn1ccc2cc(-c3ccc4oc(N5CCn6cccc6C5)nc4c3)ccc21,IC50,[1],42 nM
O=C(Nc1ccccc1)N1CCC(Cc2cnc3ccccc3c2)CC1,IC50,[3],17 nM
same,IC50,[4],66 nM
same,IC50,[5],0.8 nM
c1ccc2c(c1)CN(c1nc3cc(-c4ccc5nccn5c4)ccc3o1)C2,IC50,[1],14 nM
COc1ccc(Nc2nc3cc(-c4ccc5c(ccn5C)c4)ccc3o2)cc1,IC50,[1],280 nM
Cn1ccc2cc(-c3ccc4nc(N5Cc6ccccc6C5)oc4c3)ccc21,IC50,[1],> 1000 nM
Cn1ccc2cc(-c3ccc4oc(N5Cc6ccccc6C5)nc4c3)ccc21,IC50,[1],12 nM
same,IC50,[3],413 nM
same,IC50,[2],95 nM
same,IC50,[4],423 nM
same,IC50,[5],42 nM
COCc1ccc(-c2ccc3oc(N4Cc5ccccc5C4)nc3c2)cc1,IC50,[1],10 nM
